One substance from patent US20200397913A1, “AXL-SPECIFIC ANTIBODY-DRUG CONJUGATES FOR CANCER TREATMENT” (GENMAB A/S, priority 2015, published 2020) can be followed below.

One assay deals with M082 cells. Kind of assay: Patient-derived low passage melanoma culture viability assay. The assay is classed as cell-based, human. The following applies: ADC 8 days.
The test system of the next assay is LXFA 677_3 tumors. Kind of assay: NSCLC PDX model LXFA 677_3 with acquired resistance to erlotinib. The assay is classed as in vivo, NMRI nu/nu mice.
The test system of the next assay is SKMEL147 tumors. Kind of assay: SKMEL147 melanoma xenograft model. The assay is classed as in vivo, NMRI nude mice.
The next assay concerns A875 cells. As to the kind of experiment: Melanoma cell line viability assay (CellTiter-Glo). The assay is classed as cell-based, human. The following applies: ADC 1×10^−4 to 10 μg/mL, 5 days. (In general: In ATP-based viability assays light output follows the ATP content of the culture.)

For “IgG1-AXL-107-vcMMAE: IgG1-AXL-107 conjugated at cysteines to vcMMAE (mc-vc-PAB linker, MMAE)”, the “sensitivity of the culture to the substance” value is on record as “did not show a different response from that seen with the IgG1-b12-vcMMAE control treatment” in the assay with M082 cells and “Insensitive” in the assay with M082 cells (listed as HuMax-AXL-ADC). In addition, the anti-tumor activity entry is recorded as “induced complete tumor regression” in the assay with LXFA 677_3 tumors (LXFA 677_3, ADC 2 mg/kg day 0 and 7, alone or with erlotinib 50 mg/kg daily); “induced complete tumor regression” in the assay with LXFA 677_3 tumors (LXFA 677_3, ADC 4 mg/kg day 0 and 7, alone or with erlotinib 50 mg/kg daily); “induced tumor growth inhibition” in the assay on SKMEL147 tumors (2 mg/kg i.v. on day 12 and day 19 after tumor cell injection); “induced strong tumor regression” with SKMEL147 tumors (4 mg/kg i.v. on day 12 and day 19 after tumor cell injection); “profound anti-tumor effect” in the assay on SKMEL147 tumors (4 mg/kg i.v. on day 12 and day 19 after tumor cell injection, listed as HuMax-AXL-ADC). Besides, the “anti-tumor activity upon retreatment after regrowth” value in the assay with SKMEL147 tumors (single dose of 4 mg/kg on day 55, four mice) is “tumor regression in all four mice”. The “sensitivity of the cell line to the substance” value with A875 cells was “sensitive”; with A875 cells (listed as HuMax-AXL-ADC) it was “Sensitive”.
